# Test results reported in PMC10526447 (Biomolecules, 2023).
# Like-named read-outs stand apart in the source and are kept apart here. Positions of bridges follow the written chain, without caps; N, C: chain ends. No end group written: not given here.
# Assays:
# WIV1-CoV S protein = type: cell-based; conditions: read-out: IC50 against Cell-Cell Fusion Mediated by S Proteins of CoVs
# HCoV-OC43 = type: in vivo, ICR mice (newborn)
# SARS-CoV-2 HR1P = SARS-CoV-2 HR1P (Severe acute respiratory syndrome coronavirus 2, UniProt P0DTC2); type: physicochemical; conditions: pH 7.2
# Pseudotyped WIV1-CoV = conditions: 48 h
# Pseudotyped HCoV-OC43 = conditions: 48 h
# Pseudotyped HCoV-229E = conditions: 48 h
# Pseudotyped SARS-CoV-2 [1] = conditions: 48 h
# live HCoV-OC43 = conditions: 8 h
# live HCoV-229E = conditions: 8 h
# SARS-CoV-2 PsV = conditions: 48 h
# SARS-CoV PsV = conditions: rhesus monkey, in vivo
# [2] = in vivo; cited from earlier work
# SARS-CoV S protein = SARS-CoV S protein (Severe acute respiratory syndrome coronavirus, UniProt P59594); experiment: cell-based
# MERS-CoV S protein = MERS-CoV S protein (Middle East respiratory syndrome-related coronavirus, UniProt K9N5Q8); experiment: cell-based
# SARS-CoV-2 S protein [3] = target: T1, SARS-CoV-2 S protein (Severe acute respiratory syndrome coronavirus 2, UniProt P0DTC2); experiment: cell-based; conditions: IC50 against Cell-Cell Fusion Mediated by S Proteins of CoVs
# HCoV-OC43 S protein = HCoV-OC43 S protein (Human coronavirus OC43, UniProt P36334); experiment: cell-based
# HCoV-NL63 S protein = HCoV-NL63 S protein (Human coronavirus NL63, UniProt Q6Q1S2); experiment: cell-based
# HCoV-229E S protein = HCoV-229E S protein (Human coronavirus 229E, UniProt P15423); experiment: cell-based
# Pseudotyped SARS-CoV [4] = conditions: 48 h
# Pseudotyped MERS-CoV [5] = conditions: 48 h
# Pseudotyped SARS-CoV-2 [6] = conditions: 48 h; remark: listed apart in the source
# Pseudotyped HCoV-NL63 [7] = conditions: 48 h
# Pseudotyped SARS-CoV [8] = conditions: 48 h; remark: listed apart in the source
# Pseudotyped MERS-CoV [9] = conditions: 48 h; remark: listed apart in the source
# Pseudotyped HCoV-NL63 [10] = conditions: 48 h; remark: listed apart in the source
# SARS-CoV-2 S protein [11] = target: T1, SARS-CoV-2 S protein; experiment: cell-based
# proteinase K = proteinase K (Parengyodontium album, UniProt P06873)
# [12] = test system: Caco-2, Calu-3, RD and Huh-7 cells; conditions: 24 h
# [13] = mouse, in vivo, 50 mg/kg
# [14] = rhesus monkey, in vivo, iv, 10 mg/kg
# [15] = test system: pseudotyped SARS-CoV-2 VOCs; conditions: 48 h
# in vivo = conditions: rhesus monkey, iv, 10 mg/kg
# in vitro = conditions: human, Caco-2, Calu-3, RD and Huh-7 cells
# [16] = target: SARS-CoV-2 HR1 peptide (SARS-CoV-2)
# [17] = target: human immunoglobulin G (IgG) (human); experiment: BLI
# Sequence of proteinase K (P06873 106-384): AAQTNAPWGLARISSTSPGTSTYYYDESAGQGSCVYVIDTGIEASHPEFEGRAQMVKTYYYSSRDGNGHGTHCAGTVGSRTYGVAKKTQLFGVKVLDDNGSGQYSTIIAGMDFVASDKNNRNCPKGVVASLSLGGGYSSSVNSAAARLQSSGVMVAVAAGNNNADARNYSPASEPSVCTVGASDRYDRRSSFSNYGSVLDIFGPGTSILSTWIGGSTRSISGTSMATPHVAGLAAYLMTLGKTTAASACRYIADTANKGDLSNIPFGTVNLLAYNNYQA
molecule,measurement,setting,value
CC[C@H](C)[C@H](NC(=O)[C@H](C)NC(=O)[C@H](CCC(=O)O)NC(=O)[C@H](CCC(=O)O)NC(=O)[C@H](CC(C)C)NC(=O)[C@H](CCCCN)NC(=O)[C@H](CCCCN)NC(=O)[C@H](CCSC)NC(=O)[C@H](CCC(=O)O)NC(=O)[C@H](Cc1ccc(O)cc1)NC(=O)[C@H](CCC(=O)O)NC(=O)[C@H](CC(C)C)NC(=O)[C@H](CC(=O)O)NC(=O)[C@H](CC(C)C)NC(=O)[C@H](Cc1ccccc1)NC(=O)[C@@H](NC(=O)[C@@H](NC(=O)[C@H](CC(N)=O)NC(=O)[C@@H](NC(=O)[C@H](CCC(N)=O)NC(=O)[C@H](CC(=O)O)NC(=O)[C@H](CC(C)C)NC(=O)[C@@H](N)CO)[C@@H](C)CC)C(C)C)[C@@H](C)O)C(=O)N[C@@H](CCCCN)C(=O)N[C@@H](CCCCN)C(=O)N[C@@H](CC(C)C)C(=O)N[C@@H](CCC(=O)O)C(=O)N[C@@H](CCC(=O)O)C(=O)N[C@@H](CO)C(=O)N[C@@H](Cc1ccc(O)cc1)C(=O)N[C@H](C(=O)N[C@@H](CC(=O)O)C(=O)N[C@@H](CC(C)C)C(=O)N[C@@H](CCCCN)C(=O)N[C@@H](CCC(=O)O)C(=O)N[C@@H](CC(C)C)C(=O)O)[C@@H](C)CC [EK1],IC50,WIV1-CoV S protein,588 nM
same,"protection (survival), prophylactic","HCoV-OC43; 3-day-old suckling mice, 10 mg/kg intranasal single dose 1 h before HCoV-OC43 (100 TCID50) challenge",100%
same,"viral loads in mouse brain, therapeutic group","HCoV-OC43; day 5 post challenge, 10 mg/kg intranasal 1 h after challenge, vs viral control",significantly different from those of viral control group
same,"viral loads in mouse brain, prophylactic group","HCoV-OC43; day 5 post challenge, 10 mg/kg intranasal 1 h before challenge, relative RNA quantification vs viral control",very low
same,Tm of complex with SARS-CoV-2 HR1P,SARS-CoV-2 HR1P,51.05 °C
same,IC50,Pseudotyped WIV1-CoV,6.99 µM
same,IC50,Pseudotyped HCoV-OC43,3.61 µM
same,IC50,Pseudotyped HCoV-229E,3.48 µM
same,IC50,Pseudotyped SARS-CoV-2 [1],253 nM
same,IC50,live HCoV-OC43,764 nM
same,IC50,live HCoV-229E,7.59 µM
same,IC50,SARS-CoV-2 PsV,791 nM
same,ex vivo inhibition of SARS-CoV PsV by serum (fold of its IC50),"SARS-CoV PsV; iv, 10 mg/kg",below 450 fold
same,t1/2,"SARS-CoV PsV; iv, 10 mg/kg",1.77 h
same,t1/2 (reported value),[2],1.8 h
CC(C)C[C@@H]1NC(=O)[C@H](Cc2c[nH]cn2)NC(=O)[C@H](Cc2c[nH]c3ccccc23)NC(=O)[C@H](C)NC(=O)[C@@H](NC(=O)[C@@H](N)CC(=O)O)CSSC[C@@H](C(=O)N[C@H](C(=O)O)[C@@H](C)O)NC(=O)[C@H](Cc2c[nH]c3ccccc23)NC(=O)[C@H](C(C)C)NC(=O)[C@H](CC(C)C)NC(=O)[C@H](CCC(=O)O)NC(=O)CNC1=O [IBP],IC50,SARS-CoV S protein,> 50000 nM
same,IC50,MERS-CoV S protein,> 50000 nM
same,IC50,SARS-CoV-2 S protein [3],> 100000 nM
same,IC50,HCoV-OC43 S protein,> 50000 nM
same,IC50,HCoV-NL63 S protein,> 50000 nM
same,IC50,HCoV-229E S protein,> 50000 nM
same,IC50,Pseudotyped SARS-CoV [4],> 50 µM
same,IC50,Pseudotyped MERS-CoV [5],> 50 µM
same,IC50,Pseudotyped SARS-CoV-2 [6],> 50 µM
same,IC50,Pseudotyped WIV1-CoV,> 50 µM
same,IC50,Pseudotyped HCoV-OC43,> 50 µM
same,IC50,Pseudotyped HCoV-NL63 [7],> 50 µM
same,IC50,Pseudotyped HCoV-229E,> 50 µM
same,IC50,Pseudotyped SARS-CoV [8],> 50 µM
same,IC50,Pseudotyped MERS-CoV [9],> 50 µM
same,IC50,Pseudotyped SARS-CoV-2 [1],> 50000 nM
same,IC50,Pseudotyped HCoV-NL63 [10],> 50 µM
same,IC50,live HCoV-OC43,> 50000 nM
same,IC50,live HCoV-229E,> 50 µM
same,IC50,SARS-CoV-2 PsV,> 100000 nM
DCAWHLGELVWCTGGSSLDQINVTFLDLEYEMKKLEEAIKKLEESYIDLKEL (disulfide 2-12) [IBP-L-EK1],IC50,SARS-CoV-2 PsV,806 nM
DCAWHLGELVWCTSLDQINVTFLDLEYEMKKLEEAIKKLEESYIDLKEL (disulfide 2-12) [IBP-EK1],IC50,SARS-CoV S protein,229 nM
same,IC50,MERS-CoV S protein,376 nM
same,IC50,SARS-CoV-2 S protein [3],512 nM
same,IC50,HCoV-OC43 S protein,829 nM
same,IC50,HCoV-NL63 S protein,212 nM
same,IC50,HCoV-229E S protein,478 nM
same,IC50,SARS-CoV-2 S protein [11],325 nM
same,IC50,Pseudotyped WIV1-CoV,6.05 µM
same,IC50,Pseudotyped HCoV-OC43,3.57 µM
same,IC50,Pseudotyped HCoV-229E,3.34 µM
same,IC50,Pseudotyped SARS-CoV-2 [1],180 nM
same,IC50,live HCoV-OC43,744 nM
same,IC50,live HCoV-229E,4.14 µM
same,IC50,SARS-CoV-2 PsV,788 nM
same,residual inhibitory activity against SARS-CoV-2 PsV after trypsin treatment,trypsin,significantly better inhibitory activities than those of EK1
same,residual inhibitory activity against SARS-CoV-2 PsV after proteinase K treatment,proteinase K,significantly better inhibitory activities than those of EK1
same,selectivity index (SI = CC50/IC50),[12],more than 100
same,ALT level in sera,[13],in the normal range
same,IBP-EK1-specific antibodies in sera (immunogenicity),[13],no IBP-EK1-specific antibodies were detected
same,body weight changes,[13],weight changes similar to those of the PBS-treated group
same,creatinine level in sera,[13],in the normal range
same,"histopathology of lungs, livers and kidneys (H&E)",[13],no pathological abnormalities in their organs
same,AUC,[14],2207.03 µg·h/mL
same,half-life relative to that of EK1,SARS-CoV PsV,about 21 fold
same,AUC,"SARS-CoV PsV; iv, 10 mg/kg",5228.98 µg·h/mL
same,Cmax,"SARS-CoV PsV; iv, 10 mg/kg",116.09 µg/mL
same,Tmax,"SARS-CoV PsV; iv, 10 mg/kg",2 h
same,t1/2,"SARS-CoV PsV; iv, 10 mg/kg",39.72 h
same,IC50,[15],171 to 296 nM
same,Cmax,in vivo,51.7 µg/mL
same,Tmax,in vivo,2 h
same,half-life,in vivo,2260 min
same,level at 24 h,in vivo,~24000 ng/mL
same,CC50 at 48 h,in vitro,> 100 µM
EK1 (peptide),IC50 against pseudotyped SARS-CoV-2 infection of Caco-2 cells,[16],590 nM
same,IC50 against pseudotyped SARS-CoV-2 infection of Calu-3 cells,[16],253 nM
IBP-EK1 (peptide),IC50 against pseudotyped SARS-CoV-2 infection of Caco-2 cells,[16],512 nM
same,IC50 against pseudotyped SARS-CoV-2 infection of Calu-3 cells,[16],180 nM
same,Kd,[17],217 nM
SLDQINVTFLDLEYEMKKLEEAIKKLEESYIDLKELDCAWHLGELVWCT (disulfide 38-48) [EK1-IBP],IC50,SARS-CoV-2 PsV,1180 nM
SLDQINVTFLDLEYEMKKLEEAIKKLEESYIDLKELGGSDCAWHLGELVWCT (disulfide 41-51) [EK1-L-IBP],IC50,SARS-CoV-2 PsV,1170 nM
human immunoglobulin G Fc-binding peptide (IBP),Kd,[17],1030 nM
